Like-named read-outs stand apart in the source and are kept apart here.
Target: T1, BRAFV600E full-length (amino acids 2-766) (Homo sapiens, UniProt P15056, V600E)
T1 construct: His6-tagged BRAFV600E full-length (amino acids 2-766); His6; made in house; host or cells: baculovirus expression system (insect cells)
Assay: B-Raf Accelerated MEK ATPase assay (BRAMA)
Assay type: biochemical
Details: categorized
Experimental: Compounds of the present invention were tested for B-Raf protein serine kinase inhibitory activity in a B-Raf Accelerated MEK ATPase assay (BRAMA). […] The BRAMA assay is a high sensitivity assay which measures an intrinsic MEK-mediated ATP hydrolysis uncoupled from downstream ERK phosphorylation by coupling the formation of ADP to NADH oxidation through the enzymes pyruvate kinase and lactate dehydrogenase. When ADP production is initiated by addition of catalytic amounts of an activated Raf enzyme and non-phosphorylated MEK, one observes robust ADP production concomitant with Raf-mediated phosphorylation of MEK. The method is disclosed in: C. Rominger, M. Schaber, E. May. Assay for B-Raf Activity Based on Intrinsic MEK ATPase Activity.

[1] = B-Raf Activity, Table 1a, highest pIC50 for the one or more runs
[2] = B-Raf pIC50, Table 1b, later runs, average pIC50 for the one or more runs
[3] = Table 1b, later runs, average pIC50 for the one or more runs, read-out: B-Raf pIC50 (converted)
[4] = Table 1a, highest pIC50 for the one or more runs, read-out: B-Raf Activity

T1 sequence (P15056 2-766 V600E): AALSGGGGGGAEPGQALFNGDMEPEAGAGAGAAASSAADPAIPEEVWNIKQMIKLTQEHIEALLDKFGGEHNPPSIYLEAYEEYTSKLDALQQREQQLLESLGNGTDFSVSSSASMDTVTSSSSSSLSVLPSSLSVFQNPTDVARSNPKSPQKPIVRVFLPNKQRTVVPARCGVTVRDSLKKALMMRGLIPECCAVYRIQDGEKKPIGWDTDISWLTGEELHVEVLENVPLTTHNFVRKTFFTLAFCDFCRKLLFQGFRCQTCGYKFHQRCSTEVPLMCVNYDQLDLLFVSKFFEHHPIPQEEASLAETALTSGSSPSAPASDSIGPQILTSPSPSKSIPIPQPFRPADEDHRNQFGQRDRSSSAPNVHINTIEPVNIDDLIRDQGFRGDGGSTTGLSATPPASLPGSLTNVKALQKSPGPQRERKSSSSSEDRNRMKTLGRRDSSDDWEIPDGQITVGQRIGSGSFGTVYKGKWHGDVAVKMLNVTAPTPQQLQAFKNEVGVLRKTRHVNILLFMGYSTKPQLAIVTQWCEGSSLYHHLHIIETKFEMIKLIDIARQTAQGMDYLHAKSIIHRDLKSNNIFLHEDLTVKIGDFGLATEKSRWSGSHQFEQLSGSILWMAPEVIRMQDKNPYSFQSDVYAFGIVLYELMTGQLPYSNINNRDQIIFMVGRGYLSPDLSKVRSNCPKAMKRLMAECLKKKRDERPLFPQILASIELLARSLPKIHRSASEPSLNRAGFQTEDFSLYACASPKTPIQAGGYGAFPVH

**Q.** How did the IC50 [1] turn out when `CC(C)c1nc(-c2cccc(NS(=O)(=O)c3c(F)cccc3F)c2)c(-c2ccnc(NCCS(C)(=O)=O)n2)s1` [Example 1, 2,6-Difluoro-N-{3-[2-(1-methylethyl)-5-(2-{[2-(methylsulfonyl)ethyl]amino}-4-pyrimidinyl)-1,3-thiazol-4-yl]phenyl}benzenesulfonamide] was run?
**A.** The IC50 was under 100 nM.

**Q.** What about the IC50 [2] of the same molecule?
**A.** The IC50 was at most 3.16 nM.

**Q.** What does the source list for `CC(C)c1nc(-c2ccc(F)c(NS(=O)(=O)c3c(F)cccc3F)c2)c(-c2ccnc(NCCS(C)(=O)=O)n2)s1` [Example 8, 2,6-Difluoro-N-{2-fluoro-5-[2-(1-methylethyl)-5-(2-{[2-(methylsulfonyl)ethyl]amino}-4-pyrimidinyl)-1,3-thiazol-4-yl]phenyl}benzenesulfonamide]?
**A.** IC50 [1]: < 100 nM; IC50 [3]: 3.16 to 31.6 nM

**Q.** How did the IC50 [1] turn out when `CC(C)(C)c1nc(-c2ccc(F)c(NS(=O)(=O)c3c(F)cccc3F)c2)c(-c2ccnc(NCCS(C)(=O)=O)n2)s1` [Example 10, N-{5-[2-(1,1-Dimethylethyl)-5-(2-{[2-(methylsulfonyl)ethyl]amino}-4-pyrimidinyl)-1,3-thiazol-4-yl]-2-fluorophenyl}-2,6-difluorobenzenesulfonamide] was run?
**A.** Its IC50 is under 100 nM.

**Q.** And the IC50 [3]?
**A.** The IC50 was 3.16 to 31.6 nM.

**Q.** With `CC(C)c1nc(-c2cccc(NS(=O)(=O)c3c(F)cccc3F)c2F)c(-c2ccnc(NCCS(C)(=O)=O)n2)s1` [Example 11, 2,6-Difluoro-N-{2-fluoro-3-[2-(1-methylethyl)-5-(2-{[2-(methylsulfonyl)ethyl]amino}-4-pyrimidinyl)-1,3-thiazol-4-yl]phenyl}benzenesulfonamide] as the molecule, how does the IC50 [1] read?
**A.** Its IC50 is under 100 nM.

**Q.** What about the IC50 [2] of the same molecule?
**A.** Its IC50 is at most 3.16 nM.

**Q.** For `CC(C)c1nc(-c2ccc(F)c(NS(=O)(=O)c3cccc(F)c3)c2)c(-c2ccnc(N)n2)s1` [Example 84, N-{5-[5-(2-Amino-4-pyrimidinyl)-2-(1-methylethyl)-1,3-thiazol-4-yl]-2-fluorophenyl}-3-fluorobenzenesulfonamide], which IC50 [1] is on record?
**A.** The IC50 was 100 to 1000 nM.

**Q.** What about the IC50 [2] of the same molecule?
**A.** The IC50 was 31.6 to 1000 nM.

**Q.** Which IC50 [1] does the source give for `CC(C)c1nc(-c2cccc(NS(=O)(=O)c3cccc(F)c3)c2)c(-c2ccnc(NCC(N)=O)n2)s1` [Example 87, N^2-{4-[4-(3-{[(3-Fluorophenyl)sulfonyl]amino}phenyl)-2-(1-methylethyl)-1,3-thiazol-5-yl]-2-pyrimidinyl}glycinamide] here?
**A.** The IC50 was under 100 nM.

**Q.** And the IC50 [3]?
**A.** The IC50 was 3.16 to 31.6 nM.

**Q.** With `CC(C)c1nc(-c2cccc(NS(=O)(=O)c3cccc(F)c3)c2)c(-c2ccnc(NCCCN(C)C)n2)s1` [Example 88, N-{3-[5-(2-{[3-(Dimethylamino)propyl]amino}-4-pyrimidinyl)-2-(1-methylethyl)-1,3-thiazol-4-yl]phenyl}-3-fluorobenzenesulfonamide] as the molecule, how does the IC50 [1] read?
**A.** The IC50 was under 100 nM.

**Q.** What about the IC50 [3] of the same molecule?
**A.** Its IC50 is 3.16 to 31.6 nM.

**Q.** What does the source list for `CC(C)c1nc(-c2cccc(NS(=O)(=O)c3cccc(F)c3)c2)c(-c2ccnc(NC3CC3)n2)s1` [Example 89, N-{3-[5-[2-(Cyclopropylamino)-4-pyrimidinyl]-2-(1-methylethyl)-1,3-thiazol-4-yl]phenyl}-3-fluorobenzenesulfonamide]?
**A.** IC50 [1]: < 100 nM; IC50 [2]: 31.6 to 1000 nM

**Q.** For `CC(C)c1nc(-c2cccc(NS(=O)(=O)c3c(F)cccc3F)c2)c(-c2ccnc(N)n2)s1` [Example 90, N-{3-[5-(2-Amino-4-pyrimidinyl)-2-(1-methylethyl)-1,3-thiazol-4-yl]phenyl}-2,6-difluorobenzenesulfonamide], which IC50 [1] is on record?
**A.** The IC50 was under 100 nM.

**Q.** And the IC50 [2]?
**A.** Its IC50 is 31.6 to 1000 nM.

**Q.** `Nc1nccc(-c2scnc2-c2cccc(NS(=O)(=O)c3c(F)cccc3F)c2)n1` [Example 114, N-{3-[5-(2-Amino-4-pyrimidinyl)-1,3-thiazol-4-yl]phenyl}-2,6-difluorobenzenesulfonamide] was tested. Which IC50 [1] did it give?
**A.** The IC50 was 100 to 1000 nM.

**Q.** What about the IC50 [2] of the same molecule?
**A.** The IC50 was 31.6 to 1000 nM.

**Q.** What does the source list for `CC(C)(C)c1nc(-c2cccc(NS(=O)(=O)c3cc(F)ccc3F)c2)c(-c2ccnc(N)n2)s1` [Example 116, N-{3-[5-(2-Amino-4-pyrimidinyl)-2-(1,1-dimethylethyl)-1,3-thiazol-4-yl]phenyl}-2,5-difluorobenzenesulfonamide]?
**A.** IC50 [1]: < 100 nM; IC50 [3]: 3.16 to 31.6 nM

**Q.** For `CC(C)c1nc(-c2ccc(F)c(NS(=O)(=O)c3c(F)cccc3F)c2)c(-c2ccnc(NCCCN(C)C)n2)s1` [Example 169], which IC50 [4] is on record?
**A.** The IC50 was over 1000 nM.

**Q.** `CC(C)c1nc(-c2ccc(F)c(NS(=O)(=O)c3c(F)cccc3F)c2)c(-c2ccnc(NCCN3CCCC3)n2)s1` [Example 170] was tested. Which IC50 [4] did it give?
**A.** The IC50 was over 1000 nM.

**Q.** `CC(C)c1nc(-c2ccc(F)c(NS(=O)(=O)c3c(F)cccc3F)c2)c(-c2ccnc(NCCN3CCOCC3)n2)s1` [Example 171] was tested. Which IC50 [4] did it give?
**A.** Its IC50 is 100 to 1000 nM.

**Q.** For `CC(C)c1nc(-c2ccc(F)c(NS(=O)(=O)c3c(F)cccc3F)c2)c(-c2ccnc(NCCOCCO)n2)s1` [Example 172], which IC50 [4] is on record?
**A.** Its IC50 is 100 to 1000 nM.

**Q.** For `CC(C)c1nc(-c2ccc(F)c(NS(=O)(=O)c3c(F)cccc3F)c2)c(-c2ccnc(NCCCCN(C)C)n2)s1` [Example 173], which IC50 [4] is on record?
**A.** Its IC50 is 100 to 1000 nM.

**Q.** With `COCCCNc1nccc(-c2sc(C(C)C)nc2-c2ccc(F)c(NS(=O)(=O)c3c(F)cccc3F)c2)n1` [Example 174] as the molecule, how does the IC50 [4] read?
**A.** Its IC50 is 100 to 1000 nM.

**Q.** Which IC50 [3] does the source give for `CCc1nc(-c2cccc(NS(=O)(=O)c3c(F)cccc3F)c2F)c(-c2ccnc(N)n2)s1` [Example 257, N-{3-[5-(2-amino-4-pyrimidinyl)-2-ethyl-1,3-thiazol-4-yl]-2-fluorophenyl}-2,6-difluorobenzenesulfonamide] here?
**A.** The IC50 was 3.16 to 31.6 nM.

**Q.** How did the IC50 [2] turn out when `CC(C)(C)c1nc(-c2c(F)ccc(NS(=O)(=O)c3cc(F)ccc3F)c2F)c(-c2ccncn2)s1` [Example 260, N-{3-[2-(1,1-dimethylethyl)-5-(4-pyrimidinyl)-1,3-thiazol-4-yl]-2,4-difluorophenyl}-2,5-difluorobenzenesulfonamide] was run?
**A.** The IC50 was at most 3.16 nM.

**Q.** For `CC(C)(C)c1nc(-c2cccc(NS(=O)(=O)c3ccco3)c2Cl)c(-c2ccncn2)s1` [Example 261, N-{2-chloro-3-[2-(1,1-dimethylethyl)-5-(4-pyrimidinyl)-1,3-thiazol-4-yl]phenyl}-2-furansulfonamide], which IC50 [2] is on record?
**A.** The IC50 was at most 3.16 nM.

**Q.** For `CC(C)(C)c1nc(-c2cccc(NS(=O)(=O)c3ccoc3)c2Cl)c(-c2ccncn2)s1` [Example 268, N-{2-chloro-3-[2-(1,1-dimethylethyl)-5-(4-pyrimidinyl)-1,3-thiazol-4-yl]phenyl}-3-furansulfonamide], which IC50 [2] is on record?
**A.** Its IC50 is at most 3.16 nM.

**Q.** Which IC50 [2] does the source give for `CS(=O)(=O)NCc1nccc(-c2sc(N3CCOCC3)nc2-c2cccc(NS(=O)(=O)c3cc(F)ccc3F)c2F)n1` [Example 273, 2,5-difluoro-N-{2-fluoro-3-[5-(2-{[(methylsulfonyl)amino]methyl}-4-pyrimidinyl)-2-(4-morpholinyl)-1,3-thiazol-4-yl]phenyl}benzenesulfonamide] here?
**A.** Its IC50 is at most 3.16 nM.

**Q.** For `O=C(NCc1nccc(-c2sc(N3CCOCC3)nc2-c2cccc(NS(=O)(=O)c3cc(F)ccc3F)c2F)n1)C1CCCC1` [Example 274, N-({4-[4-(3-{[(2,5-difluorophenyl)sulfonyl]amino}-2-fluorophenyl)-2-(4-morpholinyl)-1,3-thiazol-5-yl]-2-pyrimidinyl}methyl)cyclopentanecarboxamide], which IC50 [3] is on record?
**A.** The IC50 was 3.16 to 31.6 nM.

**Q.** Which IC50 [3] does the source give for `CC(C)C(=O)NCc1nccc(-c2sc(N3CCOCC3)nc2-c2cccc(NS(=O)(=O)c3cc(F)ccc3F)c2F)n1` [Example 275, N-({4-[4-(3-{[(2,5-difluorophenyl)sulfonyl]amino}-2-fluorophenyl)-2-(4-morpholinyl)-1,3-thiazol-5-yl]-2-pyrimidinyl}methyl)-2-methylpropanamide] here?
**A.** Its IC50 is 3.16 to 31.6 nM.

Source: patent publication US7994185B2, “Benzene sulfonamide thiazole and oxazole compounds” (Glaxo Smith Kline LLC, priority 2008, dated 2011)
